Measurements published in PMC8533202, “Design of Inhibitors of the Intrinsically Disordered Protein NUPR1: Balance between Drug Affinity and Target Function” (Biomolecules, 2021).

What was measured:
[1] = tested on: NUPR1 nuclear translocation; assay: NUPR1 nuclear translocation, immunofluorescence in MiaPaCa-2 cells; assay type: cell-based, human; conditions: 3 µM, 6 h (Figure 4)
Protocol: Cells (100000 cells/well) were seeded in 12-well plates on coverslips overnight and then treated with 3 μM concentration of each compound for […]. After fixation with 4% paraformaldehyde (Sigma-Aldrich, St. Quentin, Fallavier, France) for 15 min, cells were washed twice with 1x PBS and incubated 1 h with the following antibodies at 1:200 dilution: rabbit anti-NUPR1 primary antibody (homemade) or γH2AX primary antibody (ab26350, Abcam, Paris, France). After the washing steps, samples were incubated 1 h with secondary antibodies at 1:500 dilution (goat anti-rabbit Alexa Fluor 488, A27034, or goat anti-mouse Alexa Fluor 488, A28175, both from Thermo Fisher Scientific, Franklin, MA, USA). ProLong™ Gold Antifade Mountant with DAPI (P36931, Thermo Fisher Scientific) was used to stain the nucleus and seal the samples. Image acquisition of Alexa Fluor 488-derived fluorescence and DAPI staining was detected with an LSM 880 controlled by Zeiss Zen Black 63x lens. Co-localization analysis and measurements in both channels were performed by using the ImageJ Coloc 2 plugin (version 3.0.5).
MiaPaCa-2 cells were treated with representative ZZW-115-derived compounds (3 µM) for 6 h. […] DAPI staining was used to detect cell nuclei, and it was combined with the Alexa 488 fluorescence in the merged panel. […]

MiaPaCa-2 cells = assay: Cell viability assay (PrestoBlue); assay type: cell-based, human; conditions: MiaPaCa-2, 72 h
Protocol: (§1) Cell viability was evaluated in ten pancreatic cancer cell lines, including MiaPaCa-2, and nine primary pancreatic cancer-derived cell lines: PDAC001T, PDAC012T, PDAC021T, PDAC081T, PDAC082T, PDAC087T, PDAC088T, PDAC089T, and PDAC115T. MiaPaCa-2 cells were obtained from ATCC (Manassas, VA, USA) and maintained in DMEM (Invitrogen, Cergy-Pontoise, France), supplemented with 10% […] at 37 °C with 5% CO2. The primary pancreatic cancer-derived cells were cultured in serum free ductal media (SFDM) following a procedure adapted from those previously described, without antibiotic, and incubated at 37 °C in a 5% CO2 incubator. Cells were plated in 96-well plates (5000 cells/well) overnight. Then, the media were supplemented with the compounds to be tested at 0–100 µM concentration, and the samples were incubated for another additional 72 h before performing the measurement. Cell viability was estimated after addition of PrestoBlue™ reagent (Life Technologies, Paris, France) for 3 h according to the PrestoBlue™ cell viability reagent protocol provided by the supplier. Cell viability was normalized when comparing to untreated cell rates. Experiments were performed in triplicate and each set was repeated three times, with similar results.

PDAC087T cells = assay: Cell viability assay (PrestoBlue); assay type: cell-based; conditions: Homo sapiens; PDAC087T (basal subtype), 72 h
Description: (§2) Primary pancreatic cancer cells PDAC001T, PDAC012T, PDAC021T, PDAC081T, PDAC082T, PDAC087T, PDAC088T, PDAC089T, and PDAC115T were obtained from the PaCaOmics clinical trial registered at www.clinicaltrials.gov (accessed on 2 October 2021) with registration number NCT01692873. We included PDAC samples from both echoendoscopic ultrasound-guided fine-needle (EUS-FNA) biopsies for patients with unresectable tumors and from surgical specimens for patients undergoing surgery. The tumor samples of these patients were used to generate patient-derived xenograft in nude mice as previously reported. Xenografts obtained from mice were split into several small pieces and used for cell culture in a biosafety chamber: after fine mincing, they were treated with collagenase type V (ref C9263; Sigma-Aldrich, St. Louis, MO, USA) and trypsin/EDTA (ref 25200-056; Gibco, Life Technologies, Grand Island, NY, USA) and were suspended in Dulbecco’s modified Eagle’s medium supplemented with 1% w/w penicillin/streptomycin (Gibco, Life Technologies, Paisley, UK) and 10% fetal bovine serum (Lonza Inc., Walkersville, MD, USA). After centrifugation, cells were resuspended in serum-free ductal media adapted from Schreiber et al. at 37 °C in a 5% CO2 incubator. Amplified cells were stored in liquid nitrogen as previously reported. Cells were weaned from antibiotics for ≥48 h before testing.
as §1

PDAC082T cells = assay: Cell viability assay (PrestoBlue); assay type: cell-based; conditions: Homo sapiens; PDAC082T (classical subtype), 72 h
Description: as §2, §1

PDAC115T cells = assay: Cell viability assay (PrestoBlue); assay type: cell-based; conditions: Homo sapiens; PDAC115T (basal subtype), 72 h
Description: as §2, §1

PDAC081T cells = assay: Cell viability assay (PrestoBlue); assay type: cell-based; conditions: Homo sapiens; PDAC081T (classical subtype), 72 h
Description: as §2, §1

PDAC089T cells = assay: Cell viability assay (PrestoBlue); assay type: cell-based; conditions: Homo sapiens; PDAC089T (derived from a liver metastasis), 72 h
Description: as §2, §1

PDAC012T cells = assay: Cell viability assay (PrestoBlue); assay type: cell-based; conditions: Homo sapiens; PDAC012T (classical subtype), 72 h
Description: as §2, §1

PDAC021T cells = assay: Cell viability assay (PrestoBlue); assay type: cell-based; conditions: Homo sapiens; PDAC021T (basal subtype), 72 h
Description: as §2, §1

PDAC001T cells = assay: Cell viability assay (PrestoBlue); assay type: cell-based; conditions: Homo sapiens; PDAC001T (basal subtype), 72 h
Description: as §2, §1

PDAC088T cells = assay: Cell viability assay (PrestoBlue); assay type: cell-based; conditions: Homo sapiens; PDAC088T (classical subtype), 72 h
Description: as §2, §1

NUPR1 = target: T1, NUPR1 (Homo sapiens, UniProt O60356); assay: Isothermal titration calorimetry (ITC) binding to NUPR1; conditions: 25 °C; for N (stoichiometry) / ΔG / ΔH / −TΔS: pH 7.0; for Ka / Kd: sodium phosphate 20 mM, pH 7.0, 2% DMSO; for Kd: read-out: Kd (=1/Ka)
T1 construct: made in house
T1 sequence (O60356 1-82): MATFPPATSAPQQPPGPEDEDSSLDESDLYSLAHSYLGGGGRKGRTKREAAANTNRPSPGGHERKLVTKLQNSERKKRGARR
Protocol: The binding of the ZZW-115-derived compounds to NUPR1 was determined as described by using a high sensitivity isothermal titration calorimeter Auto-iTC200 (MicroCal, Malvern-Panalytical, Malvern, UK). Protein samples and solutions were properly degassed. Experiments were performed with freshly prepared protein solutions at 25 °C. A solution of NUPR1 (20 μM, in sodium phosphate 20 mM, pH 7.0, 2% DMSO) in the calorimetric cell was titrated with a solution of each compound (200 μM, in sodium phosphate 20 mM pH 7.0, 2% DMSO). The inhibitors were dissolved in the same buffer used for the protein. A standard protocol was employed: 19 titrant injections with 2 μL compound solution were programmed with a time spacing of 150 s, a stirring speed of 750 rpm, and a reference power of 10 μcal/s. The heat evolved after each ligand injection was calculated from the integral of the calorimetric signal. The heat due to the binding reaction was obtained as the difference between the reaction heat and the corresponding heat of injection, the latter estimated as a constant value throughout the experiment, and included as an adjustable parameter in the analysis. Control experiments (with the compounds injected into the buffer) were performed under the same experimental conditions.
The association constant (Ka), the enthalpy change (ΔH) and the stoichiometry (n) of the binding reaction were obtained through nonlinear regression analysis of experimental data to a model assuming a single ligand binding site for the protein. Experiments were performed in replicate and data were analyzed using in-house-developed software implemented in Origin 7 (OriginLab).
The interaction between ZZW-115-Derived compounds and NUPR1 was studied by using ITC, the gold-standard technique in binding-affinity determination, to test our theoretical prediction. […] From the thermogram (thermal power as a function of time), the binding isotherm (ligand-normalized heat as a function of the molar ratio) was obtained through integration of the individual heat effect associated with injection of each ligand solution (Figure 3). We used a nonlinear least-squares regression analysis employing a model that considered a single binding site in NUPR1 to estimate binding parameters such as the dissociation constant and the binding enthalpy.

| SMILES | IC50 (MiaPaCa-2 cells; Homo sapiens, MIA PaCa-2, 72 h) | N (stoichiometry) (NUPR1) | ΔG (NUPR1) | ΔH (NUPR1) | −TΔS (NUPR1) | Ka (NUPR1) | Kd (NUPR1) | ability to hamper NUPR1 nuclear translocation [1] | IC50 (MiaPaCa-2 cells) | IC50 (PDAC087T cells) | IC50 (PDAC082T cells) | IC50 (PDAC115T cells) | IC50 (PDAC081T cells) | IC50 (PDAC089T cells) | IC50 (PDAC012T cells) | IC50 (PDAC021T cells) | IC50 (PDAC001T cells) | IC50 (PDAC088T cells) |
| --- | --- | --- | --- | --- | --- | --- | --- | --- | --- | --- | --- | --- | --- | --- | --- | --- | --- | --- |
| CN(C)CCCN1CCN(CCCN2c3ccccc3Sc3ccc(C(F)(F)F)cc32)CC1 [ZZW-142] | ~1 µM | 1.3 ± 0.1 | −7.8 ± 0.1 kcal mol^–1 | 0.3 ± 0.3 kcal mol^–1 | −8.1 ± 0.3 kcal mol^–1 | 4.9 ± 0.3 M^–1 × 10^5 | 2 ± 0.2 µM | worst effect in hampering the nuclear translocation efficiency | 0.95 µM | 16.6 µM | 23 µM | 14.7 µM | 2.27 µM | 22.5 µM | 12.8 µM | 17 µM | 11.9 µM | 23.9 µM |
| FC(F)(F)c1ccc2c(c1)N(CCCN1CCN(CCCN3CCCC3)CC1)c1ccccc1S2 [ZZW-144] | 0.26 µM | 1.2 ± 0.1 | −6.7 ± 0.1 kcal mol^–1 | 0.5 ± 0.5 kcal mol^–1 | −7.2 ± 0.5 kcal mol^–1 | 0.85 ± 0.8 M^–1 × 10^5 | 12 ± 1 µM |  |  | 3.57 µM | 3.04 µM | 3.22 µM | 0.98 µM | 8.38 µM | 2.51 µM | 3.69 µM | 2.51 µM | 5.8 µM |
| FC(F)(F)c1ccc2c(c1)N(CCCN1CCN(CCCN3CCOCC3)CC1)c1ccccc1S2 [ZZW-148] | 0.47 µM | 1.2 ± 0.1 | −6.8 ± 0.1 kcal mol^–1 | 0.7 ± 0.5 kcal mol^–1 | −7.5 ± 0.5 kcal mol^–1 | 1.0 ± 0.1 M^–1 × 10^5 | 9.6 ± 1 µM |  |  | 6.57 µM | 4.1 µM | 4.37 µM | 1.11 µM | 14.8 µM | 3.7 µM | 4.35 µM | 3.75 µM | 10.7 µM |
| FC(F)(F)c1ccc2c(c1)N(CCCN1CCN(CCN3CCCC3)CC1)c1ccccc1S2 [ZZW-130] | 0.35 µM | 1.4 ± 0.1 | −7.9 ± 0.1 kcal mol^–1 | 0.3 ± 0.3 kcal mol^–1 | −8.2 ± 0.3 kcal mol^–1 | 6.4 ± 0.4 M^–1 × 10^5 | 1.6 ± 0.1 µM |  |  | 4.95 µM | 4.33 µM | 2.91 µM | 1.12 µM | 6.03 µM | 4.18 µM | 3.81 µM | 2.45 µM | 6.75 µM |
| FC(F)(F)c1ccc2c(c1)N(CCCN1CCN(CCN3CCCCC3)CC1)c1ccccc1S2 [ZZW-131] | 0.3 µM | 0.8 ± 0.1 | −7.7 ± 0.1 kcal mol^–1 | 0.5 ± 0.3 kcal mol^–1 | −8.2 ± 0.3 kcal mol^–1 | 4.7 ± 0.3 M^–1 × 10^5 | 2.1 ± 0.1 µM |  |  | 4.43 µM | 6.49 µM | 5.75 µM | 0.97 µM | 10.6 µM | 5.25 µM | 6.47 µM | 3.98 µM | 8.11 µM |
| CCN(CC)CCCN1CCN(CCCN2c3ccccc3Sc3ccc(C(F)(F)F)cc32)CC1 [ZZW-143] | 0.29 µM | 1.2 ± 0.1 | −6.4 ± 0.1 kcal mol^–1 | 0.8 ± 0.4 kcal mol^–1 | −7.2 ± 0.4 kcal mol^–1 | 0.5 ± 0.1 M^–1 × 10^5 | 20 ± 4 µM |  |  | 2.22 µM | 3.55 µM | 2.5 µM | 0.97 µM | 6.12 µM | 2.18 µM | 2.57 µM | 2.31 µM | 5.94 µM |

Further lines, with some results ahead:

| IC50 (MiaPaCa-2 cells; Homo sapiens, MIA PaCa-2, 72 h) | N (stoichiometry) (NUPR1) | ΔG (NUPR1) | ΔH (NUPR1) | −TΔS (NUPR1) | Ka (NUPR1) | Kd (NUPR1) | SMILES | ability to hamper NUPR1 nuclear translocation [1] | IC50 (MiaPaCa-2 cells) | IC50 (PDAC087T cells) | IC50 (PDAC082T cells) | IC50 (PDAC115T cells) | IC50 (PDAC081T cells) | IC50 (PDAC089T cells) | IC50 (PDAC012T cells) | IC50 (PDAC021T cells) | IC50 (PDAC001T cells) | IC50 (PDAC088T cells) |
| --- | --- | --- | --- | --- | --- | --- | --- | --- | --- | --- | --- | --- | --- | --- | --- | --- | --- | --- |
| 0.19 µM | 1.2 ± 0.1 | −6.7 ± 0.1 kcal mol^–1 | 0.7 ± 0.5 kcal mol^–1 | −7.4 ± 0.5 kcal mol^–1 | 0.82 ± 0.9 M^–1 × 10^5 | 11 ± 1 µM | FC(F)(F)c1ccc2c(c1)N(CCCN1CCN(CCCN3CCCCC3)CC1)c1ccccc1S2 [ZZW-145] |  |  | 2.37 µM | 2.33 µM | 2.44 µM | 0.78 µM | 6.22 µM | 2.36 µM | 2.33 µM | 2.36 µM | 5 µM |
| 0.33 µM | 1.2 ± 0.1 | −7.5 ± 0.1 kcal mol^–1 | −0.7 ± 0.4 kcal mol^–1 | −6.8 ± 0.4 kcal mol^–1 | 3.1 ± 0.3 M^–1 × 10^5 | 3.2 ± 0.3 µM | CCN(CC)CCN1CCN(CCCN2c3ccccc3Sc3ccc(C(F)(F)F)cc32)CC1 [ZZW-129] |  |  | 4.28 µM | 3.56 µM | 2.46 µM | 0.86 µM | 7.9 µM | 2.77 µM | 3.41 µM | 1.94 µM | 7.28 µM |
